Assays:
HepG2-2.2.15 cells = conditions: peptide 10 micrograms per ml, dye uptake assay
CEM-SS cells = conditions: peptide 10 micrograms per ml, MTS
[1] = test system: HIV-1IIIB in CEM-SS cells; experiment: HIV-1 antiviral assay, CPE reduction (MTS); conditions: peptide 10 micrograms per ml, 6 days post-infection
MRC-5 cells = conditions: human, 6 days
[2] = test system: HCMV strain AD169 in MRC-5 cells; experiment: HCMV plaque reduction assay; conditions: HCMV AD169 in MRC-5 cells; peptide 10 micrograms per ml; 7-10 days
[3] = test system: Methicillin Resistant Staphylococcus Aureus (MRSA); conditions: 5 micrograms per ml
Pseudomonas aeruginosa = conditions: 5 micrograms per ml
Streptococcus pneumoniae = conditions: 5 micrograms per ml
in vitro [4] = conditions: human, CEM-SS cells
in vitro [5] = conditions: human
[6] = Cytotoxicity in MRC-5 cells (CellTiter 96); conditions: human, MRC-5 cells (embryonal lung fibroblasts)

In the case of `Nc1ccn([C@@H]2CS[C@H](CO)O2)c(=O)n1` [3TC, Lamivudine], the “% Cell viability” value (HepG2-2.2.15 cells) is reported as 95.8%.
In the case of `Cc1cn([C@H]2C[C@H](N=[N+]=[N-])[C@@H](CO)O2)c(=O)[nH]c1=O` [AZT], the “% Cell viability” value (CEM-SS cells) is reported as 97% and the “% CPE reduction in HIV-1 infected CEM-SS cells” value [1] is reported as 99%.
In the case of `Nc1nc(O)c2ncn(COC(CO)CO)c2n1` [Ganciclovir], the “% Cell viability” value (MRC-5 cells) is reported as 100% and the “% plaque reduction” value [2] is reported as 100%.
For `CC(C)(C)NC(=O)[C@@H]1CN(Cc2cccnc2)CCN1C[C@@H](O)C[C@@H](Cc1ccccc1)C(=O)N[C@H]1c2ccccc2C[C@H]1O` [Indinavir], the “% CPE reduction in HIV-1 infected CEM-SS cells” value [1] was 100%.
In the case of `CC[C@H](C)[C@H](NC(=O)[C@H](CCCCN)NC(=O)[C@H](CCC(=O)O)NC(=O)[C@H](CCCCN)NC(=O)[C@H](CO)NC(=O)[C@H](CCCCN)NC(=O)[C@H](CCCNC(=N)N)NC(=O)[C@H](Cc1ccccc1)NC(=O)[C@H](Cc1ccccc1)NC(=O)[C@H](CC(=O)O)NC(=O)CNC(=O)[C@H](CC(C)C)NC(=O)[C@@H](N)CC(C)C)C(=O)NCC(=O)N[C@@H](CCCCN)C(=O)N[C@@H](CCC(=O)O)C(=O)N[C@@H](Cc1ccccc1)C(=O)N[C@@H](CCCCN)C(=O)N[C@@H](CCCNC(=N)N)C(=O)N[C@H](C(=O)N[C@H](C(=O)N[C@@H](CCC(N)=O)C(=O)N[C@@H](CCCNC(=N)N)C(=O)N[C@H](C(=O)N[C@@H](CCCCN)C(=O)N[C@@H](CC(=O)O)C(=O)N[C@@H](Cc1ccccc1)C(=O)N[C@@H](CC(C)C)C(=O)N[C@@H](CCCNC(=N)N)C(=O)N[C@@H](CC(N)=O)C(=O)N[C@@H](CC(C)C)C(=O)N[C@H](C(=O)N1CCC[C@H]1C(=O)N[C@@H](CCCNC(=N)N)C(=O)N[C@H](C(=O)N[C@@H](CCC(=O)O)C(=O)N[C@@H](CO)C(N)=O)[C@@H](C)O)C(C)C)[C@@H](C)CC)C(C)C)[C@@H](C)CC` [LL-37], the “% inhibition” value [3] is reported as 0.0%, the “% inhibition” value (Pseudomonas aeruginosa) is reported as 0.0% and the “% inhibition” value (Streptococcus pneumoniae) is reported as 0.0%. It also gave a viability at 10 micrograms per ml (in vitro [4]) of 86.4%, a viability at 144 h, 10 micrograms per ml (in vitro [5]) of 100% and a viability at 144 h [6] of 100%.
